The subject of one assay is Acinetobacter baumannii. Put plainly: Antibacterial activity against Acinetobacter baumannii after 20 to 22 hrs by broth microdilution method. It counts as functional.
Another assay concerns the target T1, Beta-lactamase 1 (Bacillus cereus, UniProt P00809).
T1 sequence (P00809 whole entry): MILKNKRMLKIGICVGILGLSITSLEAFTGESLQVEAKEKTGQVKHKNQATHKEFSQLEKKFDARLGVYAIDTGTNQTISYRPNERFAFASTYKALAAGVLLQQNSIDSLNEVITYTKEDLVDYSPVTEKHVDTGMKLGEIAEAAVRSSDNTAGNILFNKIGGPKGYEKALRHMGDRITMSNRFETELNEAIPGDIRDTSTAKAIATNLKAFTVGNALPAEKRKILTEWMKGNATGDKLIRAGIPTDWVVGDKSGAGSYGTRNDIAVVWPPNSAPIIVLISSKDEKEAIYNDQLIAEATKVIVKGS
The experiment in a line: Inhibition of Bacillus cereus beta-lactamase […] using CENTA as substrate up to 30 mins by Lineweaver-Burk plot analysis.

In brackets after ≈: the same amount, converted by molar mass.

Regarding `C[C@]1(COC(=O)Cc2ccc(O)c(O)c2)[C@H](C(=O)O)N2C(=O)/C(=C/c3ccccn3)[C@H]2S1(=O)=O`, the lowest concentration to inhibit growth against Acinetobacter baumannii (MIC) was 2 µg/mL (≈ 4.09 µM).
Compound `O=C(O)c1cccc(CS(=O)(=O)C(=O)NCB(O)O)c1` came in with a Ki on Beta-lactamase 1 of 1.3 nM.
Same read-out and setting: then `O=C(NCB(O)O)S(=O)(=O)c1cc(Cl)cc(-c2nnn[nH]2)c1`, with 0.2 nM; and `O=C(NCB(O)O)S(=O)(=O)c1cc(-c2nnn[nH]2)cc(C(F)(F)F)c1`, with 0.05 nM; and `O=C(NCB(O)O)S(=O)(=O)c1ccnc(-c2nnn[nH]2)c1`, with 0.8 nM.

The values above are taken from ChEMBL document CHEMBL4177567, “Antibiotic adjuvants - A strategy to unlock bacterial resistance to antibiotics” (Bioorg Med Chem Lett, 2017).
